In publication PMC9389804 (Journal of Hematology & Oncology, 2022):
“And” between values parts separate entries of the source, which are not always exact repeats. Identical values can stand only once.

Assay: safety assessments (adverse events, NCI CTCAE)
Settings: for Treatment-related cardiovascular events: any grade
[1] = median follow-up of nearly 3 years
[2] = nonhematologic TRAE, all 165 patients
[3] = treatment-related CVE G 3/4, Accelerated phase n=38
[4] = treatment-related CVE G 3/4, Chronic phase n=127
[5] = treatment-related CVE G 3/4, Total n=165
[6] = treatment-related CVE any grade, Accelerated phase n=38
[7] = treatment-related CVE any grade, Chronic phase n=127
[8] = treatment-related CVE any grade, Total n=165

Procedure: Adverse events were assessed continuously and graded according to NCI CTCAE v5.0.18. Complete blood count with differential, serum chemistries, and physical examinations were performed before the study; weekly during Cycles 1 and 2; on alternate weeks in Cycles 3 and 4; and monthly thereafter.

Cc1ccc(C(=O)Nc2ccc(CN3CCN(C)CC3)c(C(F)(F)F)c2)cc1C#Cc1cnc2[nH]ncc2c1 [olverembatinib]
Hematologic (TRAE any grades, Total n=165): 138 (83.6) n (%) | Hyperbilirubinemia (TRAE any grades, Total n=165): 69 (41.8) n (%) | Hyperglycemia (TRAE any grades, Total n=165): 43 (26.1) n (%) | Hypertriglyceridemia (TRAE any grades, Total n=165): 95 (57.6) n (%) | Hypoalbuminemia (TRAE any grades, Total n=165): 26 (15.8) n (%) | Hypocalcemia (TRAE any grades, Total n=165): 64 (38.8) n (%) | Hypokalemia (TRAE any grades, Total n=165): 42 (25.5) n (%) | Hyponatremia (TRAE any grades, Total n=165): 38 (23.0) n (%) | Increased alanine aminotransferase (TRAE any grades, Total n=165): 59 (35.8) n (%) | Increased alkaline phosphatase (TRAE any grades, Total n=165): 21 (12.7) n (%) | Increased aspartate aminotransferase (TRAE any grades, Total n=165): 59 (35.8) n (%) | Increased creatine phosphokinase (TRAE any grades, Total n=165): 48 (29.1) n (%) | Increased γ-glutamyl transferase (TRAE any grades, Total n=165): 47 (28.5) n (%) | Leukopenia (TRAE any grades, Total n=165): 56 (33.9) n (%) | Myalgia (TRAE any grades, Total n=165): 31 (18.8) n (%) | Neutropenia (TRAE any grades, Total n=165): 26 (15.8) n (%) | Nonhematologic (TRAE any grades, Total n=165): 165 (100.0) n (%) | Pain in extremity (TRAE any grades, Total n=165): 21 (12.7) n (%) | Proteinuria (TRAE any grades, Total n=165): 84 (50.9) n (%) | Pyrexia (TRAE any grades, Total n=165): 30 (18.2) n (%) | Rash (TRAE any grades, Total n=165): 27 (16.4) n (%) | Sinus tachycardia (TRAE any grades, Total n=165): 30 (18.2) n (%) | Skin pigmentation (TRAE any grades, Total n=165): 139 (84.2%) n (%) and 139 (84.2) n (%) | Thrombocytopenia (TRAE any grades, Total n=165): 126 (76.4) n (%) | Treatment-related adverse events (TRAE any grades, Total n=165): 165 (100.0) n (%) | Adverse events resulting in dose interruption (Total n=165): 86 (52.1%) n (%) and 86 (52.1) n (%) | Adverse events resulting in dose reduction (Total n=165): 50 (30.3%) n (%) and 50 (30.3) n (%) | Adverse events resulting in treatment discontinuation (Total n=165): 13 (7.9) n (%) | severe thrombocytopenia leading to dose reduction (all 165 patients): 15.8% | Treatment-related cardiovascular events (Accelerated phase n=38): 9 (23.7) n (%) | Treatment-related cardiovascular events (Chronic phase n=127): 44 (34.6) n (%) | Treatment-related cardiovascular events (Total n=165): 53 (32.1%) n (%) and 53 (32.1) n (%) | median time to temporary treatment suspension or dose reduction (for SAEs): 5 months | patients requiring temporary treatment suspension or dose reduction (for SAEs): 75 (46.0%) n (%) | myelosuppression, median duration (in vivo): 36 (7–718) days | myelosuppression, median onset time (in vivo): 28 (4–676) days | patients in whom CVEs were grade 1 or 2 (in vivo): 88.5% | patients who received platelet transfusions (in vivo): 11.5% | patients who received red blood cell transfusions (in vivo): 9.7% | median duration of treatment interruptions (interruptions due to AEs): 56 days | median number of treatment interruptions (interruptions due to AEs): 2 | incidence of arterial occlusive and venous thrombotic events [1]: 5.0% | olverembatinib-related CVEs [1]: 32.0% | median time to onset of nonhematologic TRAEs (most frequent nonhematologic TRAEs): 70 days | Hyperbilirubinemia [2]: 41.8% | Hypertriglyceridemia [2]: 57.6% | Hypocalcemia [2]: 38.8% | Proteinuria [2]: 50.9% | elevated liver transaminases [2]: 35.8% | patients with Fridericia-corrected QT interval exceeding 500 ms on treatment (patients with CVEs): None | renal function according to estimated glomerular filtration rate (patients with persistent proteinuria): did not observe decreased renal function | Anemia (serious AE (SAE)): 6.0% | Atrial fibrillation (serious AE (SAE)): 2.0% | Pneumonia (serious AE (SAE)): 3.0% | Pyrexia (serious AE (SAE)): 2.0% | Thrombocytopenia (serious AE (SAE)): 9.0% | acute MI, cholelithiasis, pericardial effusion, upper-respiratory-tract infection, and urinary-tract infection (each) (serious AE (SAE)): 1% | Acute coronary syndrome [3]: 0 n (%) | Acute myocardial infarction [3]: 0 n (%) | Angina pectoris [3]: 0 n (%) | Arrhythmia [3]: 0 n (%) | Arteriosclerosis coronary artery [3]: 0 n (%) | Atrial fibrillation [3]: 1 (2.6) n (%) | Atrial tachycardia [3]: 0 n (%) | Cardiomegaly [3]: 0 n (%) | Cerebral infarction [3]: 0 n (%) | Lacunar infarction [3]: 0 n (%) | Palpitations [3]: 0 n (%) | Pericardial effusion [3]: 1 (2.6) n (%) | Retinal-vein occlusion [3]: 0 n (%) | Supraventricular extrasystoles [3]: 0 n (%) | Ventricular extrasystoles [3]: 0 n (%) | Acute coronary syndrome [4]: 1 (0.8) n (%) | Acute myocardial infarction [4]: 1 (0.8) n (%) | Angina pectoris [4]: 0 n (%) | Arrhythmia [4]: 1 (0.8) n (%) | Arteriosclerosis coronary artery [4]: 1 (0.8) n (%) | Atrial fibrillation [4]: 1 (0.8) n (%) | Atrial tachycardia [4]: 0 n (%) | Cardiomegaly [4]: 0 n (%) | Cerebral infarction [4]: 1 (0.8) n (%) | Lacunar infarction [4]: 1 (0.8) n (%) | Palpitations [4]: 0 n (%) | Pericardial effusion [4]: 1 (0.8) n (%) | Retinal-vein occlusion [4]: 2 (1.6) n (%) | Supraventricular extrasystoles [4]: 0 n (%) | Ventricular extrasystoles [4]: 0 n (%) | Acute coronary syndrome [5]: 1 (0.6) n (%) | Acute myocardial infarction [5]: 1 (0.6) n (%) | Angina pectoris [5]: 0 n (%) | Arrhythmia [5]: 1 (0.6) n (%) | Arteriosclerosis coronary artery [5]: 1 (0.6) n (%) | Atrial fibrillation [5]: 2 (1.2) n (%) | Atrial tachycardia [5]: 0 n (%) | Cardiomegaly [5]: 0 n (%) | Cerebral infarction [5]: 1 (0.6) n (%) | Lacunar infarction [5]: 1 (0.6) n (%) | Palpitations [5]: 0 n (%) | Pericardial effusion [5]: 2 (1.2) n (%) | Retinal-vein occlusion [5]: 2 (1.2) n (%) | Supraventricular extrasystoles [5]: 0 n (%) | Ventricular extrasystoles [5]: 0 n (%) | Acute coronary syndrome [6]: 0 n (%) | Acute myocardial infarction [6]: 0 n (%) | Angina pectoris [6]: 0 n (%) | Arrhythmia [6]: 0 n (%) | Arteriosclerosis coronary artery [6]: 0 n (%) | Atrial fibrillation [6]: 3 (7.9) n (%) | Atrial tachycardia [6]: 0 n (%) | Cardiomegaly [6]: 0 n (%) | Cerebral infarction [6]: 0 n (%) | Lacunar infarction [6]: 0 n (%) | Palpitations [6]: 1 (2.6) n (%) | Pericardial effusion [6]: 3 (7.9) n (%) | Retinal-vein occlusion [6]: 0 n (%) | Supraventricular extrasystoles [6]: 2 (5.3) n (%) | Ventricular extrasystoles [6]: 0 n (%) | Acute coronary syndrome [7]: 1 (0.8) n (%) | Acute myocardial infarction [7]: 1 (0.8) n (%) | Angina pectoris [7]: 1 (0.8) n (%) | Arrhythmia [7]: 1 (0.8) n (%) | Arteriosclerosis coronary artery [7]: 1 (0.8) n (%) | Atrial fibrillation [7]: 2 (1.6) n (%) | Atrial tachycardia [7]: 1 (0.8) n (%) | Cardiomegaly [7]: 1 (0.8) n (%) | Cerebral infarction [7]: 1 (0.8) n (%) | Lacunar infarction [7]: 1 (0.8) n (%) | Palpitations [7]: 1 (0.8) n (%) | Pericardial effusion [7]: 11 (8.7) n (%) | Retinal-vein occlusion [7]: 3 (2.4) n (%) | Supraventricular extrasystoles [7]: 3 (2.4) n (%) | Ventricular extrasystoles [7]: 7 (5.5) n (%) | Acute coronary syndrome [8]: 1 (0.6) n (%) | Acute myocardial infarction [8]: 1 (0.6) n (%) | Angina pectoris [8]: 1 (0.6) n (%) | Arrhythmia [8]: 1 (0.6) n (%) | Arteriosclerosis coronary artery [8]: 1 (0.6) n (%) | Atrial fibrillation [8]: 5 (3.0) n (%) | Atrial tachycardia [8]: 1 (0.6) n (%) | Cardiomegaly [8]: 1 (0.6) n (%) | Cerebral infarction [8]: 1 (0.6) n (%) | Lacunar infarction [8]: 1 (0.6) n (%) | Palpitations [8]: 2 (1.2) n (%) | Pericardial effusion [8]: 14 (8.5) n (%) | Retinal-vein occlusion [8]: 3 (1.8) n (%) | Supraventricular extrasystoles [8]: 5 (3.0) n (%) | Ventricular extrasystoles [8]: 7 (4.2) n (%)
